Several values for one entry are separate records, joined by “and”; a condition that tells them apart may be missing. Equal entries are not always repeated.
Columns and labels:
[1] = test system: MCD diet NASH mice; assay: Serum AST and ALT of compounds treated-NASH mice (MCD diet); assay type: in vivo, Male C57BL/6 mice; conditions: MCD diet mice; for Serum ALT (U/L) / Serum AST (U/L): 100 mg/kg oral, PG/TPSG (1:1); for effect on serum concentrations of AST and ALT, in words: 100 mg/kg oral (Table 2)
Experimental: (§1) Animals and experimental protocol: Male C57BL/6 mice, 4 weeks of age, were purchased from Laboratory Animal Center (Taiwan, China) were maintained under the procedures and guidelines provided by the Institutional Animal Care and Use Committee of the Health Research Institutes (Taiwan, China). They were maintained with free access to pellet food and water in stainless-steel cages at a temperature of 21±2° C. with a 12 h light/dark cycle.
(§2) Mice were randomly divided into five groups and treated as follows: (1) MCD diet+PG/TPSG (2) MCD diet+100 mg/kg all compounds. After 28 days, animals were sacrificed for the collection of blood for determination of plasma ALT and AST concentrations, and liver samples for H&E stain.
(§3) After 28 days, animals were sacrificed for the collection of blood for determination of plasma ALT and AST concentrations, and liver samples for H&E stain.

[2] = test system: hepatic steatosis induced by MCD diet; assay: Histological examination (H&E stain) of liver of MCD diet mice; assay type: in vivo, Male C57BL/6 mice; conditions: for effect on MCD diet-induced steatohepatitis (H&E staining), in words / Steatosis / Ballooning / Fibrosis / Inflammation / Scores: MCD diet mice; for effect on MCD diet-induced steatohepatitis (H&E staining), in words / Avg / Ballooning / Fibrosis / Inflammation / Sum / Scores: 100 mg/kg oral; for Avg: average of Scores of the group; for Avg / Ballooning / Fibrosis / Inflammation / Sum / Scores: PG/TPSG (1:1); for Steatosis / Ballooning / Fibrosis / Inflammation: score per animal; for Steatosis: 100 mg/kg oral once daily, 5 times a week, in PG/TPSG (1:1); for Sum: sum of Scores of the 4 animals of the group; for Scores: total score per animal
Experimental: as §1, §2, §3

Row | Compound | Serum ALT (U/L) [1] | Serum AST (U/L) [1] | effect on MCD diet-induced steatohepatitis (H&E staining), in words [2] | Avg [2] | Steatosis ([2]; hydrochloride, 100 mg/kg) | Ballooning [2] | Fibrosis [2] | Inflammation [2] | Sum [2] | Scores ([2]; hydrochloride, 100 mg/kg) | effect on serum concentrations of AST and ALT, in words [1] | Steatosis [2] | Ballooning ([2]; hydrochloride, 100 mg/kg) | Inflammation ([2]; hydrochloride, 100 mg/kg) | Scores [2]
1 | COc1cc(/C=C/c2ccc(OC(=O)NCCNC(=O)C(N)C(C)C)cc2)cc(OC)c1.Cl (stereo not shown) [Compound 7c, (E)-4-(3,5-dimethoxystyryl)phenyl (2-(2-amino-3-methylbutanamido)ethyl) carbamate hydrochloride] | 252.13 U/L | 435.25 U/L | prevented MCD diet-induced steatohepatitis | 7.75 | 3 (3×) and 2 | 2 | 0 | 3 | 31 | 8 (3×) and 7 |  |  |  |  | 
2 | COc1cc(/C=C/c2ccc(OC(=O)OCCNC(=O)C(N)CCSC)cc2)cc(OC)c1.Cl (stereo not shown) [Compound 5f, (E)-2-(2-amino-4-(methylthio)butanamido)ethyl (4-(3,5-dimethoxystyryl)phenyl) carbonate hydrochloride] | 153.00 U/L | 241.75 U/L | prevented MCD diet-induced steatohepatitis | 6.25 |  |  | 0 |  | 25 |  | significantly inhibited the serum concentrations of AST and ALT | 2 | 1 (3×) and 2 | 2 (3×) and 1 | 5
3 | COc1cc(/C=C/c2ccc(OC(=O)OCCNC(=O)C(N)C(C)C)c(OC)c2)cc(OC)c1.Cl (stereo not shown) [Compound 6g, (E)-2-(2-amino-3-methylbutanamido)ethyl (4-(3,5-dimethoxystyryl)-2-methoxyphenyl) carbonate hydrochloride] | 260.75 U/L | 455.25 U/L | prevented MCD diet-induced steatohepatitis | 7.75 | 3 (3×) and 2 | 2 | 0 | 3 | 31 | 8 (3×) and 7 |  |  |  |  | 
4 | COc1cc(/C=C/c2ccc(OC(=O)OCCNC(=O)C(N)CC(C)C)cc2)cc(OC)c1.Cl (stereo not shown) [Compound 5d, (E)-2-(2-amino-4-methylpentanamido)ethyl (4-(3,5-dimethoxystyryl)phenyl) carbonate hydrochloride] | 196.13 U/L | 392.25 U/L | prevented MCD diet-induced steatohepatitis | 7.75 | 3 (3×) and 2 | 2 | 0 | 3 | 31 | 8 (3×) and 7 | significantly inhibited the serum concentrations of AST and ALT |  |  |  | 
5 | COc1cc(/C=C/c2ccc(OC(=O)OCCNC(=O)C(N)CO)cc2)cc(OC)c1.Cl (stereo not shown) [Compound 5g, (E)-2-(2-amino-3-hydroxypropanamido)ethyl (4-(3,5-dimethoxystyryl)phenyl) carbonate hydrochloride] | 222.13 U/L | 444.25 U/L | prevented MCD diet-induced steatohepatitis | 6.5 | 3 (2×) and 2 (2×) |  | 0 |  | 26 | 8 (2×) and 5 (2×) |  |  | 2 (2×) and 1 (2×) | 3 (2×) and 2 (2×) | 
6 | COc1cc(/C=C/c2ccc(OC(=O)OCCNC(=O)C(N)CC(N)=O)cc2)cc(OC)c1.Cl (stereo not shown) [Compound 5p, (E)-2-(2,4-diamino-4-oxobutanamido)ethyl (4-(3,5-dimethoxystyryl)phenyl) carbonate hydrochloride] | 288.50 U/L | 327.00 U/L | prevented MCD diet-induced steatohepatitis | 7.75 | 3 (3×) and 2 | 2 | 0 | 3 | 31 | 8 (3×) and 7 | significantly inhibited the serum concentrations of AST and ALT |  |  |  | 
7 | COc1cc(/C=C/c2ccc(OC(=O)OCCNC(=O)C(C)N)cc2)cc(OC)c1.Cl (stereo not shown) [Compound 5b, (E)-2-(2-aminopropanamido)ethyl (4-(3,5-dimethoxystyryl)phenyl) carbonate hydrochloride] | 180.88 U/L | 235.25 U/L | prevented MCD diet-induced steatohepatitis | 4.5 | 2 (3×) and 3 |  | 0 |  | 19 | 5 and 4 (2×) and 6 | significantly inhibited the serum concentrations of AST and ALT |  | 1 (3×) and 2 | 2 and 1 (3×) | 
8 | COc1cc(/C=C/c2ccc(OC(=O)OCCNC(=O)C(N)Cc3ccccc3)cc2)cc(OC)c1.Cl (stereo not shown) [Compound 5j, (E)-2-(2-amino-3-phenylpropanamido)ethyl (4-(3,5-dimethoxystyryl)phenyl) carbonate hydrochloride] | 299.00 U/L | 598.00 U/L | prevented MCD diet-induced steatohepatitis | 7.75 | 3 (3×) and 2 | 2 | 0 | 3 | 31 | 8 (3×) and 7 |  |  |  |  | 
9 | COc1cc(/C=C/c2ccc(OC(=O)NCCNC(=O)C(N)Cc3ccccc3)cc2)cc(OC)c1.Cl (stereo not shown) [Compound 7e, (E)-4-(3,5-dimethoxystyryl)phenyl (2-(2-amino-3-phenylpropanamido)ethyl) carbamate hydrochloride] | 286.75 U/L | 477.00 U/L | prevented MCD diet-induced steatohepatitis | 7.75 |  | 2 | 0 |  | 31 | 8 (3×) and 7 |  | 3 |  | 3 (3×) and 2 | 
10 | COc1cc(/C=C/c2ccc(OC(=O)OCCNC(=O)C3CCCN3)cc2)cc(OC)c1.Cl (stereo not shown) [Compound 5t, (E)-4-(3,5-dimethoxystyryl)phenyl (2-(pyrrolidine-2-carboxamido)ethyl) carbonate hydrochloride] | 263.00 U/L | 370.25 U/L | prevented MCD diet-induced steatohepatitis | 7.75 | 3 (3×) and 2 | 2 | 0 | 3 | 31 | 8 (3×) and 7 |  |  |  |  | 
11 | CCC(C)C(N)C(=O)NCCOC(=O)Oc1ccc(/C=C/c2cc(OC)cc(OC)c2)cc1.Cl (stereo not shown) [Compound 5e, (E)-2-(2-amino-3-methylpentanamido)ethyl (4-(3,5-dimethoxystyryl)phenyl) carbonate hydrochloride] | 209.62 U/L | 419.25 U/L | prevented MCD diet-induced steatohepatitis | 7.75 |  | 2 | 0 |  | 31 | 8 (3×) and 7 |  | 3 |  | 3 (3×) and 2 | 
12 | COc1cc(/C=C/c2ccc(OC(=O)OCCNC(=O)C(N)C(C)O)cc2)cc(OC)c1.Cl (stereo not shown) [Compound 5h, (E)-2-(2-amino-3-hydroxybutanamido)ethyl (4-(3,5-dimethoxystyryl)phenyl) carbonate hydrochloride] | 150.75 U/L | 301.50 U/L |  | 8 |  | 2 | 0 | 3 | 32 |  | significantly inhibited the serum concentrations of AST and ALT | 3 |  |  | 8
